Source: a compilation of properties of binary mixtures (doi:10.1016/j.molliq.2014.08.031)

Experiment: xn = mol fraction of the nth substance listed
Details: 101 kPa

CCCC[n+]1ccn(C)c1.CS(=O)(=O)[O-] + O
Details	electrical conductivity [S/m]	viscosity [mPa·s]
328.15 K, x2 = 0.796	3.01	–
328.15 K, x2 = 0.861	5.12	–
328.15 K, x2 = 0.892	6.23	–
328.15 K, x2 = 0.929	7.21	–
328.15 K, x2 = 0.968	7	–
329.15 K, x1 = 0.004	2.04	–
329.15 K, x1 = 0.008	3.67	–
329.15 K, x1 = 0.019	5.81	–
329.15 K, x2 = 0.785	2.9	–
329.15 K, x2 = 0.796	3.05	–
329.15 K, x2 = 0.861	5.25	–
329.15 K, x2 = 0.892	6.26	–
329.15 K, x2 = 0.929	7.35	–
329.15 K, x2 = 0.951	7.83	–
330.15 K, x1 = 0.004	2.09	–
330.15 K, x1 = 0.008	3.72	–
330.15 K, x1 = 0.019	5.88	–
330.15 K, x2 = 0.704	1.84	–
330.15 K, x2 = 0.785	2.98	–
330.15 K, x2 = 0.861	5.37	–
330.15 K, x2 = 0.892	6.36	–
330.15 K, x2 = 0.929	7.5	–
330.15 K, x2 = 0.951	7.95	–
330.15 K, x2 = 0.968	7.38	–
331.15 K, x1 = 0.004	2.13	–
331.15 K, x1 = 0.008	3.77	–
331.15 K, x2 = 0.785	3.04	–
331.15 K, x2 = 0.796	3.2	–
331.15 K, x2 = 0.892	6.46	–
331.15 K, x2 = 0.929	7.61	–
331.15 K, x2 = 0.951	8.05	–
331.15 K, x2 = 0.968	7.39	–
332.15 K, x1 = 0.004	2.15	–
332.15 K, x1 = 0.008	3.83	–
332.15 K, x1 = 0.019	6.06	–
332.15 K, x2 = 0.704	1.99	–
332.15 K, x2 = 0.785	3.13	–
332.15 K, x2 = 0.796	3.29	–
332.15 K, x2 = 0.861	5.61	–
332.15 K, x2 = 0.892	6.57	–
332.15 K, x2 = 0.968	7.57	–
333.15 K, x1 = 0.004	2.17	–
333.15 K, x1 = 0.008	3.78	–
333.15 K, x1 = 0.019	6.17	–
333.15 K, x2 = 0.5596	–	14
333.15 K, x2 = 0.6542	–	9.62
333.15 K, x2 = 0.704	2.04	–
333.15 K, x2 = 0.7495	–	6.25
333.15 K, x2 = 0.785	3.21	–
333.15 K, x2 = 0.796	3.36	–
333.15 K, x2 = 0.8521	–	3.29
333.15 K, x2 = 0.861	5.75	–
333.15 K, x2 = 0.892	6.73	–
333.15 K, x2 = 0.9254	–	1.742
333.15 K, x2 = 0.929	7.9	–
333.15 K, x2 = 0.951	8.3	–
333.15 K, x2 = 0.975	–	0.79
334.15 K, x1 = 0.004	2.18	–
334.15 K, x1 = 0.008	3.93	–
334.15 K, x1 = 0.019	6.35	–
334.15 K, x2 = 0.704	2.12	–
334.15 K, x2 = 0.785	3.28	–
334.15 K, x2 = 0.796	3.43	–
334.15 K, x2 = 0.861	5.94	–
334.15 K, x2 = 0.892	6.95	–
334.15 K, x2 = 0.929	8.03	–
334.15 K, x2 = 0.951	8.46	–
335.15 K, x1 = 0.008	3.98	–
335.15 K, x1 = 0.019	6.33	–
335.15 K, x2 = 0.704	2.17	–
335.15 K, x2 = 0.785	3.35	–
335.15 K, x2 = 0.796	3.52	–
335.15 K, x2 = 0.861	5.97	–
335.15 K, x2 = 0.892	7.12	–
335.15 K, x2 = 0.929	8.18	–
335.15 K, x2 = 0.951	8.59	–
335.15 K, x2 = 0.968	7.93	–
336.15 K, x1 = 0.008	4.04	–
336.15 K, x1 = 0.019	6.42	–
336.15 K, x2 = 0.704	2.19	–
336.15 K, x2 = 0.785	3.42	–
336.15 K, x2 = 0.796	3.59	–
336.15 K, x2 = 0.861	6.09	–
336.15 K, x2 = 0.892	7.28	–
336.15 K, x2 = 0.929	8.3	–
336.15 K, x2 = 0.968	8.02	–
337.15 K, x1 = 0.004	2.29	–
337.15 K, x1 = 0.008	4.1	–
337.15 K, x1 = 0.019	6.53	–
337.15 K, x2 = 0.704	2.3	–
337.15 K, x2 = 0.785	3.52	–
337.15 K, x2 = 0.892	7.41	–
337.15 K, x2 = 0.951	8.9	–
337.15 K, x2 = 0.968	8.19	–
338.15 K, x1 = 0.004	2.31	–
338.15 K, x1 = 0.008	4.15	–
338.15 K, x2 = 0.704	2.35	–
338.15 K, x2 = 0.892	7.53	–
338.15 K, x2 = 0.929	8.57	–
338.15 K, x2 = 0.968	8.14	–
339.15 K, x1 = 0.004	2.35	–
339.15 K, x1 = 0.008	4.19	–
339.15 K, x1 = 0.019	6.73	–
339.15 K, x2 = 0.704	2.42	–
339.15 K, x2 = 0.785	3.67	–
339.15 K, x2 = 0.796	3.85	–
339.15 K, x2 = 0.861	6.47	–
339.15 K, x2 = 0.892	7.69	–
339.15 K, x2 = 0.929	8.73	–
339.15 K, x2 = 0.951	9.11	–
340.15 K, x1 = 0.004	2.39	–
340.15 K, x1 = 0.008	4.25	–
340.15 K, x1 = 0.019	6.83	–
340.15 K, x2 = 0.704	2.47	–
340.15 K, x2 = 0.785	3.75	–
340.15 K, x2 = 0.796	3.93	–
340.15 K, x2 = 0.861	6.6	–
340.15 K, x2 = 0.892	7.77	–
340.15 K, x2 = 0.929	8.85	–
340.15 K, x2 = 0.951	9.22	–
340.15 K, x2 = 0.968	8.56	–
341.15 K, x1 = 0.004	2.42	–
341.15 K, x1 = 0.008	4.29	–
341.15 K, x1 = 0.019	6.96	–
341.15 K, x2 = 0.704	2.54	–
341.15 K, x2 = 0.785	3.84	–
341.15 K, x2 = 0.796	4.07	–
341.15 K, x2 = 0.861	6.71	–
341.15 K, x2 = 0.929	9.03	–
341.15 K, x2 = 0.951	9.15	–
341.15 K, x2 = 0.968	8.57	–
342.15 K, x1 = 0.008	4.35	–
342.15 K, x1 = 0.019	6.93	–
342.15 K, x2 = 0.704	2.61	–
342.15 K, x2 = 0.796	4.11	–
342.15 K, x2 = 0.929	9.18	–
342.15 K, x2 = 0.951	9.55	–
342.15 K, x2 = 0.968	8.66	–
343.15 K, x1 = 0.008	4.38	–
343.15 K, x1 = 0.019	7.17	–
343.15 K, x2 = 0.5596	–	10.6
